Legend:
Test in all cases: relative viability (nuclei count vs DMSO), 5 days (fraction); higher = more cells survive
TGX 221 + Phenformin = compound: CC1=CN2C(=O)C=C(N=C2C(=C1)C(C)NC3=CC=CC=C3)N4CCOCC4 [TGX 221] + N=C(N)NC(=N)NCCc1ccccc1 [Phenformin] (partner 250 µM)
Method in brief: (§1)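 Nuclei were stained with Hoechst during a one-step fixation (final 0.05% Triton X-100, 1% formaldehyde, 1 ug/ml Hoechst) carried out 5 days after dosing, then counted on 4× images. The cells, lung cancer lines in 1536-well plates, had been dosed by pin tool the day after seeding with one drug alone or a fixed anchor-drug dose plus five library-drug doses (not always all listed) in √10 steps. Relative viability is the nuclei count in treated wells divided by that in vehicle wells, and each value is the median of duplicate plates.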

[1] = compound: O=C(CCCCCCNC(=O)c1cnc(N(c2ccccc2)c2ccccc2)nc1)NO [Ricolinostat] + Nc1ncn([C@H]2C[C@H](O)[C@@H](CO)O2)c(=O)n1 [Decitabine] (partner 2 µM)
Method in brief: as §1

TGX 221 + Dasatinib = compound: CC1=CN2C(=O)C=C(N=C2C(=C1)C(C)NC3=CC=CC=C3)N4CCOCC4 [TGX 221] + Cc1nc(Nc2ncc(C(=O)Nc3c(C)cccc3Cl)s2)cc(N2CCN(CCO)CC2)n1 [Dasatinib] (partner 0.075 µM)
Method in brief: as §1

TGX 221 + AZD7762 = compound: CC1=CN2C(=O)C=C(N=C2C(=C1)C(C)NC3=CC=CC=C3)N4CCOCC4 [TGX 221] + NC(=O)Nc1cc(-c2cccc(F)c2)sc1C(=O)N[C@H]1CCCNC1 [AZD7762] (partner 0.2 µM)
Method in brief: as §1

Row | Cell Line | relative viability (TGX 221 + Phenformin; first compound 0.08 µM) | relative viability (TGX 221 + Phenformin; first compound 0.253 µM) | relative viability (TGX 221 + Phenformin; first compound 0.8 µM) | relative viability (TGX 221 + Phenformin; first compound 2.53 µM) | relative viability (TGX 221 + Phenformin; first compound 8 µM) | relative viability ([1]; first compound 0.08 µM) | relative viability ([1]; first compound 0.253 µM) | relative viability ([1]; first compound 0.8 µM) | relative viability ([1]; first compound 2.53 µM) | relative viability (TGX 221 + Dasatinib; first compound 0.08 µM) | relative viability (TGX 221 + Dasatinib; first compound 0.253 µM) | relative viability (TGX 221 + Dasatinib; first compound 0.8 µM) | relative viability (TGX 221 + Dasatinib; first compound 2.53 µM) | relative viability (TGX 221 + Dasatinib; first compound 8 µM) | relative viability (TGX 221 + AZD7762; first compound 0.08 µM) | relative viability (TGX 221 + AZD7762; first compound 0.253 µM) | relative viability (TGX 221 + AZD7762; first compound 0.8 µM) | relative viability (TGX 221 + AZD7762; first compound 2.53 µM) | relative viability (TGX 221 + AZD7762; first compound 8 µM)
1 | HOP-62 | 0.641 | 0.639 | 0.728 | 0.714 | 0.777 | 0.217 | 0.186 | 0.144 | 0.221 | 0.668 | 0.566 | 0.635 | 0.533 | 0.534 | 0.424 | 0.545 | 0.661 | 0.788 | 0.641
2 | LC-2-ad | 0.556 | 0.526 | 0.569 | 0.67 | 0.599 | 0.776 | 0.784 | 0.842 | 0.835 | 0.459 | 0.51 | 0.66 | 0.55 | 0.505 | 0.832 | 0.823 | 0.832 | 0.777 | 0.736
3 | LCLC-97TM1 | 0.394 | 0.399 | 0.419 | 0.405 | 0.418 | 0.225 | 0.185 | 0.214 | 0.227 | 0.902 | 0.73 | 0.779 | 0.742 | 0.791 | 0.139 | 0.273 | 0.247 | 0.128 | 0.277
4 | LCLC-103H | 0.302 | 0.344 | 0.311 | 0.321 | 0.324 | 0.726 | 0.745 | 0.76 | 0.739 | 0.359 | 0.438 | 0.446 | 0.344 | 0.307 | 0.789 | 0.762 | 0.771 | 0.707 | 0.731
5 | LK-2 | 0.382 | 0.474 | 0.498 | 0.348 | 0.567 | 0.268 | 0.364 | 0.24 | 0.212 | 0.242 | 0.293 | 0.312 | 0.298 | 0.265 | 0.377 | 0.434 | 0.436 | 0.395 | 0.521
6 | LOU-NH91 | 0.679 | 0.74 | 0.692 | 0.784 | 0.674 | – | 0.794 | 0.826 | 0.887 | 0.561 | 0.541 | 0.535 | 0.571 | 0.529 | 0.73 | 0.758 | 0.746 | 0.789 | 0.714
7 | LU99A | 0.785 | 0.831 | 0.9 | 0.93 | 0.834 | 0.883 | 0.899 | 0.722 | 0.748 | 0.507 | 0.507 | 0.509 | 0.556 | 0.593 | 0.263 | 0.387 | 0.391 | 0.402 | 0.305
8 | LXF-289 | 0.496 | 0.479 | 0.546 | 0.458 | 0.538 | 0.407 | 0.366 | 0.384 | 0.347 | 0.209 | 0.254 | 0.194 | 0.18 | 0.203 | 1.12 | 1.12 | 1.06 | 1.03 | 1.08
9 | NCI-H520 | 0.469 | 0.352 | 0.355 | 0.379 | 0.315 | – | 0.521 | 0.513 | 0.426 | 0.215 | 0.202 | 0.156 | 0.16 | 0.159 | – | – | – | – | –
10 | NCI-H661 | 0.308 | 0.279 | 0.288 | 0.288 | 0.287 | 0.552 | 0.511 | 0.581 | 0.489 | 0.945 | 0.831 | 0.803 | 0.876 | 0.828 | – | – | – | – | –
11 | NCI-H1563 | 0.708 | 0.618 | 0.671 | 0.654 | 0.597 | – | – | – | – | 0.427 | 0.457 | 0.434 | 0.46 | 0.428 | – | – | – | – | –
12 | NCI-H1623 | 0.543 | 0.602 | 0.62 | 0.566 | 0.555 | – | – | – | – | 0.538 | 0.564 | 0.599 | 0.541 | 0.536 | – | – | – | – | –
13 | NCI-H1648 | – | – | – | – | – | – | 0.506 | 0.486 | 0.316 | – | – | – | – | – | – | 0.784 | 0.793 | 0.628 | 0.672
14 | NCI-H1650 | 0.419 | 0.3 | 0.377 | 0.382 | 0.255 | 0.489 | 0.346 | 0.358 | 0.311 | 0.236 | 0.29 | 0.28 | 0.323 | 0.242 | – | – | – | – | –
15 | NCI-H1703 | – | – | – | – | – | – | – | – | – | – | – | – | – | – | 0.129 | 0.12 | 0.12 | 0.116 | 0.146
16 | NCI-H2009 | 0.476 | 0.506 | 0.487 | 0.492 | 0.407 | 0.376 | 0.353 | 0.35 | 0.373 | 0.254 | 0.199 | 0.228 | 0.213 | 0.177 | – | – | – | – | –
17 | NCI-H2023 | 0.431 | 0.373 | 0.397 | 0.39 | 0.288 | 0.234 | 0.233 | 0.227 | 0.204 | 0.481 | 0.481 | 0.592 | 0.537 | 0.407 | – | – | – | – | –
18 | NCI-H2228 | 0.377 | 0.317 | 0.256 | 0.312 | 0.258 | – | – | – | – | 0.508 | 0.471 | 0.517 | 0.474 | 0.398 | – | – | – | – | –
19 | SK-LU-1 | 0.542 | 0.502 | 0.498 | 0.491 | 0.477 | 0.607 | 0.604 | 0.638 | 0.524 | 0.203 | 0.181 | 0.165 | 0.129 | 0.128 | – | – | – | – | –
20 | SK-MES-1 | 0.71 | 0.66 | 0.706 | 0.719 | 0.574 | 0.402 | 0.384 | 0.344 | 0.375 | 0.315 | 0.275 | 0.305 | 0.223 | 0.162 | – | – | – | – | –
21 | SW 1573 | 0.325 | 0.296 | 0.409 | 0.322 | 0.369 | 0.487 | 0.496 | 0.546 | 0.416 | 0.402 | 0.501 | 0.403 | 0.406 | 0.574 | – | – | – | – | –
22 | UMC-11 | 0.322 | 0.288 | 0.302 | 0.349 | 0.324 | 0.551 | 0.543 | 0.561 | 0.417 | 0.481 | 0.437 | 0.436 | 0.535 | 0.492 | – | – | – | – | –

Reference: the supplement of paper PMC10307832
